Legend:
NCI-H1155 [1] = assay: viability of NSCLC cell line, high N-Myc (FIG. 2A); format: cell-based, human; conditions: compared to low N-Myc EBC-1 and NCI-H2023
Description: (§1) GSPT1 was degraded by compound 10 after six hours of treatment in high N-Myc NCI-H1155 and ABC-1 cells with a DC50 of 3 nM and 22 nM, respectively (x-axys represents […]M concentration of compound 10; y-axis represents the viability in %).

NCI-H1155 [2] = assay: N-Myc-driven mouse xenograft model, human cell line NCI-H1155 (FIG. 3A); format: in vivo
GSPT1 [3] = biological target: T1, GSPT1 (Homo sapiens, UniProt P15170); assay: GSPT1 degradation in tumors of treated mice (FIG. 3B); format: in vivo, mouse; conditions: all three dose levels (1 mg/kg, 3 mg/kg, 6 mg/kg), compared to vehicle control
T1 construct: GSPT1 levels in tumors were determined by western blotting 6 hours after the third dose; from tissue; host or cells: NCI-H1155 (ATCC CRL-5818) xenograft tumours in female BALB/c nude mice
T1 sequence (P15170 whole entry): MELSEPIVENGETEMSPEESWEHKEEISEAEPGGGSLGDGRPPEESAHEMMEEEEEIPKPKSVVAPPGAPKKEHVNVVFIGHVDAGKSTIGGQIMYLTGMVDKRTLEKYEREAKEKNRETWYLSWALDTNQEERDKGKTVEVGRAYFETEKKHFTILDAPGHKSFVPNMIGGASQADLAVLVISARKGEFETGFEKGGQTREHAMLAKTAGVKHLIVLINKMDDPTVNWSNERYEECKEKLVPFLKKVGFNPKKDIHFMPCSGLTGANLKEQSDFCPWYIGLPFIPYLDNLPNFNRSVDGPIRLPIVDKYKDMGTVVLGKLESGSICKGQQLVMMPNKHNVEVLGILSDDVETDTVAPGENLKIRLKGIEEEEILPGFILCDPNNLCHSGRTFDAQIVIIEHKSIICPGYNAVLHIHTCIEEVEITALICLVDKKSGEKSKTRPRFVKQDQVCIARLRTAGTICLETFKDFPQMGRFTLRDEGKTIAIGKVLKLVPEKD
T1 sequence (Q96SW2 whole entry, further chain): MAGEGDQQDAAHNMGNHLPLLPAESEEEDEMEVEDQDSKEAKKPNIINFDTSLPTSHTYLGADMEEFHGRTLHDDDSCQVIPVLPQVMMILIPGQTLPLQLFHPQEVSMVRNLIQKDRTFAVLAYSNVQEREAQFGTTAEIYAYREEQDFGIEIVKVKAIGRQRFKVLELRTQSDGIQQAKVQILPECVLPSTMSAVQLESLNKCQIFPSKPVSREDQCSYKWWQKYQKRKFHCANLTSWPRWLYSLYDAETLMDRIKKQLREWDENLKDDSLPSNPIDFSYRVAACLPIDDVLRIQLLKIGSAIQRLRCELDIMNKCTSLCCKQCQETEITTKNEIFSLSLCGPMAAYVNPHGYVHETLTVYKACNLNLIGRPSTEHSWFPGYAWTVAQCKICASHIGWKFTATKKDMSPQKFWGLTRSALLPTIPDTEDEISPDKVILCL
T1 sequence (Q16531 2-1140 partner limits assumed): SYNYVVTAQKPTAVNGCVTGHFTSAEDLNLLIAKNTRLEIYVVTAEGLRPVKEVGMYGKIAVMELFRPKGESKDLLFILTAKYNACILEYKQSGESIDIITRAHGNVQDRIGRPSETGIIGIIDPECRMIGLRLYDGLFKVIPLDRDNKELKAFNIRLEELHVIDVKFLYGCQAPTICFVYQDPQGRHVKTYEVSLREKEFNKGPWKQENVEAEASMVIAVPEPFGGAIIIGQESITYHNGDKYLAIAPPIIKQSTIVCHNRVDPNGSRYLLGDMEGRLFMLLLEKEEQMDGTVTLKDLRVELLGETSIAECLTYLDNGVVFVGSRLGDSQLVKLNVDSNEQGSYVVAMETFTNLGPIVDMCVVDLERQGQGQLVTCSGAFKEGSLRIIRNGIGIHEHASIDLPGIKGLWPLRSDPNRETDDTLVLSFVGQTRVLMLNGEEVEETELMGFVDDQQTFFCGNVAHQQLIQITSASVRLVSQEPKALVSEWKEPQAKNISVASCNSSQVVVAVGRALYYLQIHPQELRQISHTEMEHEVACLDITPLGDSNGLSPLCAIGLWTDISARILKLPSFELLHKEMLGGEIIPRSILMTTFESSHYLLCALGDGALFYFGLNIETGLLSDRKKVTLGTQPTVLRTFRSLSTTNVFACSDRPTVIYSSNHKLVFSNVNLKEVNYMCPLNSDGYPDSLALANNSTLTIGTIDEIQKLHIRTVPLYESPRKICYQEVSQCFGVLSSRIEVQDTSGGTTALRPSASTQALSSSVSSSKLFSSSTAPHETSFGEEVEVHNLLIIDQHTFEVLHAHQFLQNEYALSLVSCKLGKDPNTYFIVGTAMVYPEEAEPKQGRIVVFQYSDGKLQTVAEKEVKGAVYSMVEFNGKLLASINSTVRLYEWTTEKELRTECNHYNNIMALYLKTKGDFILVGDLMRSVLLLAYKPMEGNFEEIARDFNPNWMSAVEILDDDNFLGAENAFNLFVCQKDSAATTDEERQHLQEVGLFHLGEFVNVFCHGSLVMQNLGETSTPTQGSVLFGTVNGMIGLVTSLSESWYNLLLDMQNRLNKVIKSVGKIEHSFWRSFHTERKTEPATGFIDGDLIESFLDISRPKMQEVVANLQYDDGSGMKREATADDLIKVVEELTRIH

GSPT1 [4] = biological target: T2, GSPT1 (Homo sapiens, UniProt P15170+Q96SW2); assay: GSPT1 levels by western blotting/densitometry in NSCLC cell lines NCI-H1155 and ABC-1; format: cell-based
T2 sequence (P15170 whole entry): as the sequence (P15170 whole entry) above
T2 sequence (Q96SW2 whole entry): as the sequence (Q96SW2 whole entry, further chain) above
T2 sequence (Q16531 2-1140 partner limits assumed): as the sequence (Q16531 2-1140 partner limits assumed) above
Description: (§2) The anti-proliferative activity of compound 10 was tested on representative N-Myc high and N-Myc low cell lines (NCI-H1155, ABC-1 and EBC-1, NCI-H2023, respectively) following treatment with compound for 72 hours. Cells were sub-cultures as recommended by the providers (ATCC, DSMZ) and incubated at 37° C., 5% CO2. All cells were authenticated and confirmed by Short Tandem Repeat (STR) profiling. Briefly, cells were seeded to the appropriate density to allow logarithmic growth over the assay period in 96-well opaque-walled clear bottom plates (from Corning, Cat. No. 3903, Lot. No. 16419061; 100 μL total volume) and incubated overnight. […] Cell viability was assessed using the CellTiter-Glo assay kit as recommended by the Manufacturer (Promega, Cat. No. G7558, Lot. No. 0000385738) and measurements performed on the EnSpire multimode plate reader (Perkin Elmer). EC50 values were determined using Prism8 (GraphPad) and the asymmetric (five-parameter) equation and least squares fit. GSPT1 levels were assessed in the NCI-H1155 and ABC-1 cell lines by densitometry analysis following treatment with compound 10 for 6 hours and western blotting analysis. […] For chemiluminescence and colorimetric signals “optimal automatic exposure” settings (3×3 binning) were employed while fluorescence was detected using 1-4 seconds exposure time to achieve best GAPDH signals and avoid overexposure. […]

[5] = system: NCI-H1155, ABC-1 and EBC-1, NCI-H2023 cell lines; assay: Viability assay (CellTiter-Glo) in N-Myc high and N-Myc low NSCLC cell lines; format: cell-based; conditions: 72 hours
Description: as §2

[6] = system: NCI-H1155 cells (human non small cell lung cancer); assay: NCI-H1155 xenograft study; format: in vivo, BALB/c nude mice
Description: For the NCI-H1155 xenograft study, cells (human non small cell lung cancer, ATCC CRL-5818) were maintained in vitro as suspension culture in ATCC-formulated DMEM:F12 Medium supplemented as recommended by the provider and kept at 37° C. in an atmosphere of 5% CO2 in air. Cells (0.5 millions) were resuspended in 0.2 mL of PBS with Matrigel (50:50) and inoculated into female BALB/c nude mice, 6-8 weeks old, and allowed to grow to 150 mm^3 in size. Mice were dosed orally with either vehicle or compound 10 at 1 or 3 mg per kilogram daily (filled squares and filled triangles, respectively) or 6 mg per kilogram for 5 continuous days followed by 9 days treatment holidays (5 On-9 off) (filled inverted triangles). Compound formulations were prepared fresh daily in 5% vDMSO/95%(30% w/v HP-β-CD in water). Gemcitabine dosed at 40 mg per kilogram, IP, Q4Dx5 was used as a positive control (filled rhombi). For this study, mice were dosed for 21 days with tumor volumes measured every 3 days.

GSPT1 [7] = biological target: T2, GSPT1; assay: GSPT1 degradation in ABC-1 cells; format: cell-based; parameters: endogenous in cells
Description: as §1

Cc1ccc(NC(=O)OCc2ccc3c(c2)C(=O)N(C2CCC(=O)NC2=O)C3)cc1Cl (stereo not shown) [Compound 10]
sensitivity to treatment (viability in %) (NCI-H1155 [1]): highly sensitive
tumor growth (tumor volume) (NCI-H1155 [2]; 1 mg/kg once daily, PO): tumor growth was suppressed for two weeks
tumor size (tumor volume) (NCI-H1155 [2]; 3 mg/kg once daily, PO): tumor size decreased, became undetectable by day eight and remained so until the end of the study at day 21
tumor size (tumor volume) (NCI-H1155 [2]; 6 mg/kg PO, five days on and nine days off): tumor size decreased, became undetectable by day eight and remained so until the end of the study at day 21
body weight (NCI-H1155 [2]; oral administration, NCI-H1155 xenograft): no body weight loss observed
tumor growth (tumor volume) (NCI-H1155 [2]; oral administration, NCI-H1155 xenograft, overall): tumor growth inhibition
degradation of GSPT1 in tumors (GSPT1 [3]): complete degradation
Concentration dependence of GSPT1 degradation (FIG. 2B) (GSPT1 [4]; NCI-H1155 and ABC-1 cells): Degradation took place in a concentration dependent manner
extent of GSPT1 degradation (GSPT1 [4]; high N-Myc NCI-H1155 and ABC-1 cells, six hours of treatment): Complete degradation of GSPT1
Sensitivity (anti-proliferative activity) versus N-Myc expression (FIG. 2A) [5]: sensitivity correlated with the expression of N-Myc
Tumor growth (FIG. 3A) ([6]; 1 mg/kg once daily, oral): tumor growth was suppressed for two weeks
Tumor size (FIG. 3A) ([6]; 3 mg/kg once daily, oral): tumor size decreased, became undetectable by day eight and remained so until the end of the study at day 21
Tumor size (FIG. 3A) ([6]; 6 mg/kg dosed for five days on and nine days off, oral): tumor size decreased, became undetectable by day eight and remained so until the end of the study at day 21
body weight ([6]; oral administration, NCI-H1155 xenograft mice): no body weight loss observed
Tumor growth (FIG. 3A) ([6]; oral administration, all dose groups): tumor growth inhibition
extent of GSPT1 degradation (GSPT1 [7]): complete degradation

Reference: patent US20230348418A1, “ISOINDOLINONE COMPOUNDS” (Monte Rosa Therapeutics, Inc., priority 2021, published 2023)
